# Results reported in patent publication US20240341171A1 (Semiconductor Energy Laboratory Co., Ltd., priority 2021, published 2024).
# Assays:
# [1] = reference value from a website; cited from earlier work
# [2] = Calculation of solubility parameter (SP value) by molecular dynamics (LAMMPS); settings: calculated SP value against reference SP value of chloroform (approx. 9.4)
# From the text: The solubility parameter (SP value) δ can be calculated by Formula (1) shown in the following Formula 1 and Formula (2) shown in the following Formula 2, using a cohesive energy density obtained by a molecular dynamics (MD) method using the interaction between molecules in the molecular assembly.
# Note that in the above Formula 1 and Formula 2, NA represents Avogadro's constant, V represents a molar volume of a molecular assembly, Ecoh represents a cohesive energy, Eassembly/number of molecules represents an energy per molecule in an assembly, and Eisolated molecule represents energy of each molecule that constitutes the assembly.
# As the energy of the assembly (Eassembly) and the energy of each molecule that constitutes the assembly (Eisolated molecule), a three-dimensional coordinate of a molecule that is calculated using LAMMPS, which is an open source software, can be used.
# Specifically, an initial state of the molecular assembly in which molecules are arranged at random is generated, using a single material system of molecules whose SP value σ is intended to be calculated. Next, the energy Eassembly of the assembly is calculated by performing a MD calculation using an NTP ensemble until when the energy and the volume go into an equilibrium state. On the other hand, the energy Eisolated molecule of each molecule that constitutes the assembly is calculated in the following manner: the volume and the shape of each molecule that constitutes the assembly are fixed and sampling is performed by the MD calculation using NVT ensemble. Next, statistical processing and substitution into Formula 1 and Formula 2 are performed, whereby the SP value δ is calculated.
# First, the energy Eassembly of the assembly of the PTCDI derivatives is calculated. Specifically, an initial state (also referred to as a liquid model) of the molecular assembly which consists of a single system of 100 PTCDI derivatives (shown above as (a) to (i)) arranged at random, is generated. Next, the MD calculation using the NTP ensemble is performed until the energy and the volume go into an equilibrium state. In the MD calculation, samplings of Step 1 under high-temperature and pressure-rising conditions, Step 2 under high-temperature and pressure-rising conditions, Step 3 under high-temperature and high-pressure conditions, Step 4 under high-temperature and normal-pressure conditions, and Step 5 under normal-temperature and normal-pressure conditions are sequentially performed. The energy Eassembly/number of molecules per molecule of the PTCDI derivative is calculated by dividing the calculated value by 100.
# The energy Eassembly of the assembly of the solvent is calculated.
# Next, the MD calculation using the NTP ensemble is performed until the energy and the volume go into an equilibrium state. […]
# [3] = Solubility test of PTCDI compounds (1 mg, solvent added in 1 mL steps, ultrasonic treatment, visual check); format: physicochemical; settings: for solubility: in chloroform and tetrahydrofuran, judged visually; for solvent [mL] CHCl3: volume of chloroform needed to dissolve 1 mg of compound; for solvent [mL] THF: volume of tetrahydrofuran needed to dissolve 1 mg of compound
# Protocol: In this example, a solubility test for a perylenetetracarboxylic diimide (PTCDI) compounds were performed.
# First, 1 mg of each of the PTCDJ compounds represented by (a) to (d) were weighed out and added to transparent containers. Next, (1) 1 mL of a solvent was added, and then ultrasonic treatment was performed for 1 minute. After that, (2) whether the PTCDI compounds were dissolved in the solvents was checked visually.
# In each PTCDI compound, aforementioned (1) and (2) were repeated until the PTCDI compounds were dissolved in the solvents. When a solution is colored in yellowish-orange and solids of materials disappear, the PTCDI compounds are regarded to be dissolved.
Structure (SMILES),SP value [1],difference in SP value σ CHCl3 [2],solubility [3],solvent [mL] CHCl3 [3] [mL],solvent [mL] THF [3] [mL]
ClC(Cl)Cl [chloroform],approximately 9.4 (cal/cm^3)^1/2,–,–,–,–
CCCCCCCCN1C(=O)c2ccc3c4ccc5c6c(ccc(c7ccc(c2c37)C1=O)c64)C(=O)N(CCCCCCCC)C5=O,–,1.3,improved as compared with that of Me-PTCDI,55,>100
CCCCC(CC)CN1C(=O)c2ccc3c4ccc5c6c(ccc(c7ccc(c2c37)C1=O)c64)C(=O)N(CC(CC)CCCC)C5=O (centres unmarked),–,1.0,improved as compared with that of PTCDI-C8,1,16
CN1C(=O)c2ccc3c4ccc5c6c(ccc(c7ccc(c2c37)C1=O)c64)C(=O)N(C)C5=O,–,2.9,extremely poor,>100,>100
"CCC(CC)N1C(=O)c2ccc3c4ccc5c6c(ccc(c7ccc(c2c37)C1=O)c64)C(=O)N(C(CC)CC)C5=O [(d) EtPr-PTCDI, 2,9-di(pentan-3-yl)anthra[2,1,9-def:6,5,10-d′e′f]diisoquinoline-1,3,8,10(2H,9H)-tetraone]",–,0.9,extremely favorable,1,1
